Activity calls are given as the source filed them. The calls are words filed in the database; no cut-off is given here.
How the values were obtained:
[1] = target: Sigma non-opioid intracellular receptor 1 (Homo sapiens, UniProt Q99720); assay: Binding affinity to Sigma1
Mus musculus [2] = assay: Neurotoxicity in mouse assessed as myoreflexation or sedation at 139 mg/kg, po by rotarod test; type: toxicity, organism-based; parameters: dose 139 mg/kg, route oral; settings: in vivo
[3] = Cmax in rat at 15 mg/kg, iv; type: ADME, organism-based; parameters: dose 15 mg/kg, route intravenous; settings: in vivo
Mus musculus [4] = assay: Neurotoxicity in mouse assessed as myoreflexation or sedation at 52.7 mg/kg, ip by rotarod test; type: toxicity, organism-based; parameters: dose 52.7 mg/kg, route intraperitoneal; settings: in vivo
Mus musculus [5] = assay: Inhibition of DOI-induced head twitches in mouse at 3 mg/kg, ip; type: functional; settings: route intraperitoneal
[6] = target: Sodium-dependent noradrenaline transporter (Homo sapiens) (UniProt P23975); assay: Binding affinity to norepinephrine transporter at 10 uM
Sodium-dependent noradrenaline transporter (Homo sapiens), sequence (P23975 whole entry): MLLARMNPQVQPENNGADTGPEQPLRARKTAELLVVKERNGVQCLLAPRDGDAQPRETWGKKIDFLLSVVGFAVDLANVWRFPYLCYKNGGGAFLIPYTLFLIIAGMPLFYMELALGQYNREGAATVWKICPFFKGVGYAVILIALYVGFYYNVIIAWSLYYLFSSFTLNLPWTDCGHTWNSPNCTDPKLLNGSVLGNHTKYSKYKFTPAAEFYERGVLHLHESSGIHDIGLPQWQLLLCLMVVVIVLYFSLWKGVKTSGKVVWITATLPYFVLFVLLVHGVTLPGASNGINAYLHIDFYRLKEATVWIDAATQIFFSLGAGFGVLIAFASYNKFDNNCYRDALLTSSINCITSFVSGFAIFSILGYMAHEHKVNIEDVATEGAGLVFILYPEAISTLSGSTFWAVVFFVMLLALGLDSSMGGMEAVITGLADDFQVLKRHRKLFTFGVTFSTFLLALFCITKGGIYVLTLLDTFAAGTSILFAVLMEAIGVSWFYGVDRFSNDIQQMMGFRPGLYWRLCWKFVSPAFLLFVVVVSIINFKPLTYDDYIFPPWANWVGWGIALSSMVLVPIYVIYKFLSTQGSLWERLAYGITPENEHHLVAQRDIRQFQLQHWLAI

[7] = target: T1, 5-hydroxytryptamine receptor 1A (Rattus norvegicus, UniProt P19327); assay: Displacement of [3H]-8-OH-DPAT from 5HT1A receptor in rat hippocampus; type: tissue-based
T1 sequence (P19327 whole entry): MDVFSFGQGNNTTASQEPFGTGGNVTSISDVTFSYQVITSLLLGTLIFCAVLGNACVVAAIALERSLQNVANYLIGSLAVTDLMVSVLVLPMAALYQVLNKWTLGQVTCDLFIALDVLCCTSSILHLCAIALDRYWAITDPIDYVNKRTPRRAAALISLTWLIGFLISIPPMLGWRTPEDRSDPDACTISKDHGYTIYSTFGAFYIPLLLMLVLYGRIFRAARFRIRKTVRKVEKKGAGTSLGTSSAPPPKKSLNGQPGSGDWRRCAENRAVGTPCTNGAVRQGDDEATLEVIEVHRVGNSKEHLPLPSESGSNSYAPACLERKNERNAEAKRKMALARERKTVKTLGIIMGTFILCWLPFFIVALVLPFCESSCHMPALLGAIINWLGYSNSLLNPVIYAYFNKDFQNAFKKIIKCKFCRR

[8] = Half life in rat at 15 mg/kg, iv; type: ADME, organism-based; parameters: dose 15 mg/kg, route intravenous; settings: in vivo
Mus musculus [9] = assay: Inhibition of 5-hydroxytryptophan-induced head twitches in mouse at 3 mg/kg, ip; type: functional; settings: route intraperitoneal
[10] = Clearance in rat at 15 mg/kg, iv; type: ADME, organism-based; parameters: dose 15 mg/kg, route intravenous; settings: in vivo
[11] = Binding affinity to opioid receptor at 10 uM
[12] = Cmax in rat at 15 mg/kg, po; type: ADME, organism-based; parameters: dose 15 mg/kg, route oral; settings: in vivo
[13] = Volume of distribution at steady state in rat at 15 mg/kg, iv; type: ADME, organism-based; parameters: dose 15 mg/kg, route intravenous; settings: in vivo, read-out: Vdss
Mus musculus [14] = assay: Inhibition of DOI-induced head twitches in mouse at 1 mg/kg, ip; type: functional; settings: route intraperitoneal
[15] = Half life in rat liver microsomes by LC/MS/MS; type: ADME, Microsome
[16] = AUCall in rat at 15 mg/kg, iv; type: ADME, organism-based; parameters: dose 15 mg/kg, route intravenous; settings: plasma
Mus musculus [17] = assay: Antinociceptive activity in po dosed mouse by hot plate test; type: functional
Mus musculus [18] = assay: Analgesic activity in po dosed mouse assessed as inhibition of acetic acid-induced writhing response administered 0.5 to 1 hr before acetic acid challenge; type: functional
Mus musculus [19] = assay: Inhibition of 5-hydroxytryptophan-induced head twitches in mouse at 10 mg/kg, ip; type: functional; settings: route intraperitoneal
[20] = AUCall in rat at 15 mg/kg, po; type: ADME, organism-based; parameters: dose 15 mg/kg, route oral; settings: plasma
[21] = target: 5-hydroxytryptamine receptor 2A (Homo sapiens, UniProt P28223); assay: Antagonist activity at 5HT2A receptor; type: functional
5-hydroxytryptamine receptor 2A (Homo sapiens, UniProt P28223), sequence (P28223 whole entry): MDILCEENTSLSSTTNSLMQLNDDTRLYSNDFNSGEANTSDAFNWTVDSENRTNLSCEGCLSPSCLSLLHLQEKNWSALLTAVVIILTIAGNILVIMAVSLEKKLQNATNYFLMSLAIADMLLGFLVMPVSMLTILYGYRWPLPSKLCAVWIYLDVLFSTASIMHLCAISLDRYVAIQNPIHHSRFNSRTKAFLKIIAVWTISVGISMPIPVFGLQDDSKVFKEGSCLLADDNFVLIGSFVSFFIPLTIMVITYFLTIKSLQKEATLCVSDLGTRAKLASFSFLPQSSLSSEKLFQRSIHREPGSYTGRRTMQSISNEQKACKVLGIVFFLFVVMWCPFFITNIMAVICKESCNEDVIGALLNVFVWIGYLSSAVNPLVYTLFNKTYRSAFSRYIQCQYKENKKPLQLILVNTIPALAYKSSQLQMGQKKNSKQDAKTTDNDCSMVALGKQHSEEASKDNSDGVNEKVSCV

[22] = target: 5-hydroxytryptamine receptor 2A (Rattus norvegicus, UniProt P14842); assay: Displacement of [3H]-ketanserin from 5HT2A receptor in rat cortical membrane; type: cell membranes
5-hydroxytryptamine receptor 2A (Rattus norvegicus, UniProt P14842), sequence (P14842 whole entry): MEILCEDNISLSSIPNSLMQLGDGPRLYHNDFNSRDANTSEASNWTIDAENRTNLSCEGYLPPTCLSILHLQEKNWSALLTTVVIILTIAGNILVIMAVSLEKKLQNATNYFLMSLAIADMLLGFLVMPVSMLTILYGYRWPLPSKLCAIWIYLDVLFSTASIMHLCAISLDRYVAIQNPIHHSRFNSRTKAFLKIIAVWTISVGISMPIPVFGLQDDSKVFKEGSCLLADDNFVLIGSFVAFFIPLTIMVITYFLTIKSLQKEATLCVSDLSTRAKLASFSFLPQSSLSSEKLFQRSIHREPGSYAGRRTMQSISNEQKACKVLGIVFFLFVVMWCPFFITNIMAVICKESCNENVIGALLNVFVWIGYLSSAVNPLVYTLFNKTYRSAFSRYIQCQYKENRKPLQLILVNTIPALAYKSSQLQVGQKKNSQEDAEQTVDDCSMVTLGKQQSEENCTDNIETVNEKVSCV

[23] = Binding affinity to prostaglandin synthetase at 10 uM
[24] = Oral bioavailability in rat at 15 mg/kg; type: ADME, organism-based; settings: in vivo
[25] = Half life in rat at 15 mg/kg, po; type: ADME, organism-based; parameters: dose 15 mg/kg, route oral; settings: in vivo
[26] = Tmax in rat at 15 mg/kg, po; type: ADME, organism-based; parameters: dose 15 mg/kg, route oral; settings: in vivo
[27] = Half life in human liver microsomes by LC/MS/MS; type: ADME, Microsome
Mus musculus [28] = assay: Inhibition of DOI-induced head twitches in mouse at 0.3 mg/kg, ip; type: functional; settings: route intraperitoneal
Mus musculus [29] = assay: Inhibition of DOI-induced head twitches in ip dosed mouse; type: functional, organism-based
Rattus norvegicus = assay: Antiinflammatory activity in po dosed rat persistent inflammatory pain model assessed as inhibition of carrageenan-induced mechanical hyperalgesia; type: functional
Mus musculus [30] = assay: Analgesic activity in ip dosed mouse assessed as inhibition of acetic acid-induced writhing response administered 0.5 to 1 hr before acetic acid challenge; type: functional
Mus musculus [31] = species on record: Mus musculus; assay: Antinociceptive activity in mouse by hot plate test in presence of naloxone; type: functional, organism-based
[32] = target: 5-hydroxytryptamine receptor 2B (Homo sapiens, UniProt P41595); assay: Binding affinity to 5HT2B receptor
5-hydroxytryptamine receptor 2B, sequence (P41595 whole entry): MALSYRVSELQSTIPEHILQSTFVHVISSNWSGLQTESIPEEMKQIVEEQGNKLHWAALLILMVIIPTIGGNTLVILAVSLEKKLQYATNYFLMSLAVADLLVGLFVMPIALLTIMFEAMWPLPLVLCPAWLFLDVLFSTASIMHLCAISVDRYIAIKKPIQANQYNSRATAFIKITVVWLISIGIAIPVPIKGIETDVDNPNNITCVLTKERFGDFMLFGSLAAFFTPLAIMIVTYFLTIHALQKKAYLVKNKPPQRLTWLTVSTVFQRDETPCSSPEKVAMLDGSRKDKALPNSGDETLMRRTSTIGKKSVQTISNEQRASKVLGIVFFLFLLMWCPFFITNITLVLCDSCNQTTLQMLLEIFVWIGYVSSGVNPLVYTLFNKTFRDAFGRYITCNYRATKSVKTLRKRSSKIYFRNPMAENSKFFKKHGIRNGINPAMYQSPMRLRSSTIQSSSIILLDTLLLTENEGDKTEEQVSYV

Sigma non-opioid intracellular receptor 1, sequence (Q99720 whole entry): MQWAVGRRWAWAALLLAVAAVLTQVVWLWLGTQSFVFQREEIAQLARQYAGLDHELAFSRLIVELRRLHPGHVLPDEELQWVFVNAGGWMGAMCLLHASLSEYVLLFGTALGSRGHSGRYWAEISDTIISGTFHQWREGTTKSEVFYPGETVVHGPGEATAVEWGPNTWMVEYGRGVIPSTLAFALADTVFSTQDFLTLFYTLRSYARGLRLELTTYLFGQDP

COc1ccc(N2CCN(CC[C@@H](OC(N)=O)c3ccccc3)CC2)cc1
Ki [1]: 0.392 µM | Activity (Mus musculus [2]): Non-toxic | Cmax [3]: 9950 ng/mL | Activity (Mus musculus [4]): Non-toxic | inhibition in vivo at 3 mg/kg (Mus musculus [5]): 89.3% | inhibition [6]: inactive | IC50 [7]: 8.82 µM | half-life [8]: 1.8 h | inhibition in vivo at 3 mg/kg (Mus musculus [9]): 46.2% | clearance [10]: 14.1 mL/min/kg | inhibition [11]: inactive | Cmax [12]: 2200 ng/mL | Vd [13]: 1.77 L/kg | inhibition in vivo at 1 mg/kg (Mus musculus [14]): 61.4% | half-life [15]: 1.52 h | AUC [16]: 17800 ng·h/mL | ED50 (Mus musculus [17]): 2.86 mg/kg | ED50 (Mus musculus [18]): 2.65 mg/kg | inhibition in vivo at 10 mg/kg (Mus musculus [19]): 100% | AUC [20]: 13200 ng·h/mL | IC50 [21]: 5.8 µM | IC50 [22]: 5.77 µM | inhibition [23]: inactive | bioavailability [24]: 73.8% | half-life [25]: 2.6 h | Tmax [26]: 1.1 h | half-life [27]: 5.32 h | inhibition in vivo at 0.3 mg/kg (Mus musculus [28]): 40% | inhibition (Mus musculus [29]): Dose-dependent effect | Activity (Rattus norvegicus): Dose-dependent effect | ED50 (Rattus norvegicus): 0.68 mg/kg | ED50 (Mus musculus [30]): 0.94 mg/kg | Activity (Mus musculus [31]): Active | Ki [32]: 0.164 µM
